From US10681909B2, “Herbicidal triazoles” (FMC Corporation, priority 2014, dated 2020)

Assays:
galium = test: Test C postemergence; assay type: in vivo, Galium aparine
Method in brief: (§1)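 Test chemicals in a non-phytotoxic solvent mixture with surfactant were applied to pots of plants at 2 to 18 cm (1- to 4-leaf stage) for postemergence treatment, grown in a peat-based medium with vermiculite, starter nutrients and dolomitic limestone. Preemergence treatment was to seeds freshly planted in loam soil mixed with sand.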

waterhemp = test: Test C postemergence; assay type: in vivo, Amaranthus rudis
Method in brief: as §1

barnyardgrass [1] = test: Test A postemergence; assay type: in vivo, Echinochloa crus-galli; settings: 0 to 100 scale (0 no effect, 100 complete control), approx. 10 d
Method in brief: (§2)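 For preemergence, seeds were sown in a loam soil-sand blend and given a directed soil spray of test chemical in a non-phytotoxic solvent mixture with surfactant. For postemergence, plants in pots of the same blend were sprayed with the same formulation at the one- to two-leaf stage, 2 to 10 cm tall.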

pigweed = test: Test A postemergence; assay type: in vivo, Amaranthus retroflexus; settings: 0 to 100 scale (0 no effect, 100 complete control), approx. 10 d
Method in brief: as §2

barnyardgrass [2] = test: Test C postemergence; assay type: in vivo, Echinochloa crus-galli
Method in brief: as §1

oilseed rape = test: Test C postemergence; assay type: in vivo, Brassica napus; settings: Oilseed Rape
Method in brief: as §1

velvetleaf = test: Test C postemergence; assay type: in vivo, Abutilon theophrasti
Method in brief: as §1

foxtail, giant [3] = test: Test A preemergence; assay type: in vivo, Setaria faberii; settings: 0 to 100 scale (0 no effect, 100 complete control)
Method in brief: as §2

morningglory = test: Test C postemergence; assay type: in vivo, Ipomoea coccinea
Method in brief: as §1

crabgrass, large = test: Test C postemergence; assay type: in vivo, Digitaria sanguinalis
Method in brief: as §1

kochia = test: Test C postemergence; assay type: in vivo, Kochia scoparia
Method in brief: as §1

barnyardgrass [4] = test: Test A preemergence; assay type: in vivo, Echinochloa crus-galli; settings: 0 to 100 scale (0 no effect, 100 complete control)
Method in brief: as §2

sedge, umbrella = test: Test B flooded paddy test; assay type: in vivo, Cyperus difformis; settings: 250 g ai/ha, applied to paddy water at 2-leaf stage, visual rating after 13 to 15 d, scale 0 (no effect) to 100 (complete control)
Method in brief: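 Pots were flooded to 3 cm above the soil at treatment, and compounds were applied directly into the paddy water. That depth was held throughout. After 13 to 15 d in a greenhouse, plants were rated visually against untreated controls.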

nutsedge, yellow = test: Test C postemergence; assay type: in vivo, Cyperus esculentus
Method in brief: as §1

blackgrass = test: Test C postemergence; assay type: in vivo, Alopecurus myosuroides
Method in brief: as §1

johnsongrass = test: Test C postemergence; assay type: in vivo, Sorghum halepense
Method in brief: as §1

foxtail, giant [5] = test: Test A postemergence; assay type: in vivo, Setaria faberii; settings: 0 to 100 scale (0 no effect, 100 complete control), approx. 10 d
Method in brief: as §2

corn = test: Test C postemergence; assay type: in vivo, Zea mays
Method in brief: as §1

ryegrass, Italian = test: Test C postemergence; assay type: in vivo, Lolium multiflorum
Method in brief: as §1

wheat = test: Test A postemergence; assay type: in vivo, Triticum aestivum; settings: 0 to 100 scale (0 no effect, 100 complete control), approx. 10 d
Method in brief: as §2

CCOc1nc(-c2ccc(Cl)cc2)nn1Cc1ccnc(C(F)(F)F)c1 [Compound 26]
Plant response rating (scale of 0 to 100 where 0 is no effect and 100 is complete control) (galium; 16 g ai/ha): 80 | Plant response rating (scale of 0 to 100 where 0 is no effect and 100 is complete control) (galium; 31 g ai/ha): 90 | Plant response rating (scale of 0 to 100 where 0 is no effect and 100 is complete control) (galium; 62 g ai/ha): 90 | Plant response rating (scale of 0 to 100 where 0 is no effect and 100 is complete control) (galium; 125 g ai/ha): 90 | Plant response rating (scale of 0 to 100 where 0 is no effect and 100 is complete control) (waterhemp; 16 g ai/ha): 95 | Plant response rating (scale of 0 to 100 where 0 is no effect and 100 is complete control) (waterhemp; 31 g ai/ha): 98 | Plant response rating (scale of 0 to 100 where 0 is no effect and 100 is complete control) (waterhemp; 62 g ai/ha): 98 | Plant response rating (scale of 0 to 100 where 0 is no effect and 100 is complete control) (waterhemp; 125 g ai/ha): 98 | Plant response rating, Barnyardgrass (barnyardgrass [1]; 31 g ai/ha): 40 | Plant response rating, Barnyardgrass (barnyardgrass [1]; 125 g ai/ha): 70 | Plant response rating, Pigweed (pigweed; 31 g ai/ha): 80 | Plant response rating, Pigweed (pigweed; 125 g ai/ha): 100 | Plant response rating (scale of 0 to 100 where 0 is no effect and 100 is complete control) (barnyardgrass [2]; 16 g ai/ha): 25 | Plant response rating (scale of 0 to 100 where 0 is no effect and 100 is complete control) (barnyardgrass [2]; 31 g ai/ha): 30 | Plant response rating (scale of 0 to 100 where 0 is no effect and 100 is complete control) (barnyardgrass [2]; 62 g ai/ha): 45 | Plant response rating (scale of 0 to 100 where 0 is no effect and 100 is complete control) (barnyardgrass [2]; 125 g ai/ha): 55 | Plant response rating (scale of 0 to 100 where 0 is no effect and 100 is complete control) (oilseed rape; 16 g ai/ha): 90 | Plant response rating (scale of 0 to 100 where 0 is no effect and 100 is complete control) (oilseed rape; 31 g ai/ha): 98 | Plant response rating (scale of 0 to 100 where 0 is no effect and 100 is complete control) (oilseed rape; 62 g ai/ha): 90 | Plant response rating (scale of 0 to 100 where 0 is no effect and 100 is complete control) (oilseed rape; 125 g ai/ha): 95 | Plant response rating (scale of 0 to 100 where 0 is no effect and 100 is complete control) (velvetleaf; 16 g ai/ha): 60 | Plant response rating (scale of 0 to 100 where 0 is no effect and 100 is complete control) (velvetleaf; 31 g ai/ha): 60 | Plant response rating (scale of 0 to 100 where 0 is no effect and 100 is complete control) (velvetleaf; 62 g ai/ha): 65 | Plant response rating (scale of 0 to 100 where 0 is no effect and 100 is complete control) (velvetleaf; 125 g ai/ha): 70 | Plant response rating, Foxtail, Giant (foxtail, giant [3]; 31 g ai/ha): 100 | Plant response rating, Foxtail, Giant (foxtail, giant [3]; 125 g ai/ha): 100 | Plant response rating (scale of 0 to 100 where 0 is no effect and 100 is complete control) (morningglory; 16 g ai/ha): 90 | Plant response rating (scale of 0 to 100 where 0 is no effect and 100 is complete control) (morningglory; 31 g ai/ha): 90 | Plant response rating (scale of 0 to 100 where 0 is no effect and 100 is complete control) (morningglory; 62 g ai/ha): 75 | Plant response rating (scale of 0 to 100 where 0 is no effect and 100 is complete control) (morningglory; 125 g ai/ha): 85 | Plant response rating (scale of 0 to 100 where 0 is no effect and 100 is complete control) (crabgrass, large; 16 g ai/ha): 20 | Plant response rating (scale of 0 to 100 where 0 is no effect and 100 is complete control) (crabgrass, large; 31 g ai/ha): 20 | Plant response rating (scale of 0 to 100 where 0 is no effect and 100 is complete control) (crabgrass, large; 62 g ai/ha): 35 | Plant response rating (scale of 0 to 100 where 0 is no effect and 100 is complete control) (crabgrass, large; 125 g ai/ha): 50 | Plant response rating (scale of 0 to 100 where 0 is no effect and 100 is complete control) (kochia; 16 g ai/ha): 85 | Plant response rating (scale of 0 to 100 where 0 is no effect and 100 is complete control) (kochia; 31 g ai/ha): 90 | Plant response rating (scale of 0 to 100 where 0 is no effect and 100 is complete control) (kochia; 62 g ai/ha): 90 | Plant response rating (scale of 0 to 100 where 0 is no effect and 100 is complete control) (kochia; 125 g ai/ha): 90 | Plant response rating, Barnyardgrass (barnyardgrass [4]; 31 g ai/ha): 60 | Plant response rating, Barnyardgrass (barnyardgrass [4]; 125 g ai/ha): 90 | Plant response rating, Sedge, Umbrella, Flood (sedge, umbrella): 90 | Plant response rating (scale of 0 to 100 where 0 is no effect and 100 is complete control) (nutsedge, yellow; 16 g ai/ha): 15 | Plant response rating (scale of 0 to 100 where 0 is no effect and 100 is complete control) (nutsedge, yellow; 31 g ai/ha): 25 | Plant response rating (scale of 0 to 100 where 0 is no effect and 100 is complete control) (nutsedge, yellow; 62 g ai/ha): 30 | Plant response rating (scale of 0 to 100 where 0 is no effect and 100 is complete control) (nutsedge, yellow; 125 g ai/ha): 20 | Plant response rating (scale of 0 to 100 where 0 is no effect and 100 is complete control) (blackgrass; 16 g ai/ha): 15 | Plant response rating (scale of 0 to 100 where 0 is no effect and 100 is complete control) (blackgrass; 31 g ai/ha): 35 | Plant response rating (scale of 0 to 100 where 0 is no effect and 100 is complete control) (blackgrass; 62 g ai/ha): 40 | Plant response rating (scale of 0 to 100 where 0 is no effect and 100 is complete control) (blackgrass; 125 g ai/ha): 40 | Plant response rating (scale of 0 to 100 where 0 is no effect and 100 is complete control) (johnsongrass; 16 g ai/ha): 25 | Plant response rating (scale of 0 to 100 where 0 is no effect and 100 is complete control) (johnsongrass; 31 g ai/ha): 20 | Plant response rating (scale of 0 to 100 where 0 is no effect and 100 is complete control) (johnsongrass; 62 g ai/ha): 35 | Plant response rating (scale of 0 to 100 where 0 is no effect and 100 is complete control) (johnsongrass; 125 g ai/ha): 55 | Plant response rating, Foxtail, Giant (foxtail, giant [5]; 31 g ai/ha): 70 | Plant response rating, Foxtail, Giant (foxtail, giant [5]; 125 g ai/ha): 90 | Plant response rating (scale of 0 to 100 where 0 is no effect and 100 is complete control) (corn; 16 g ai/ha): 25 | Plant response rating (scale of 0 to 100 where 0 is no effect and 100 is complete control) (corn; 31 g ai/ha): 25 | Plant response rating (scale of 0 to 100 where 0 is no effect and 100 is complete control) (corn; 62 g ai/ha): 30 | Plant response rating (scale of 0 to 100 where 0 is no effect and 100 is complete control) (corn; 125 g ai/ha): 35 | Plant response rating (scale of 0 to 100 where 0 is no effect and 100 is complete control) (ryegrass, Italian; 16 g ai/ha): 20 | Plant response rating (scale of 0 to 100 where 0 is no effect and 100 is complete control) (ryegrass, Italian; 31 g ai/ha): 35 | Plant response rating (scale of 0 to 100 where 0 is no effect and 100 is complete control) (ryegrass, Italian; 62 g ai/ha): 35 | Plant response rating (scale of 0 to 100 where 0 is no effect and 100 is complete control) (ryegrass, Italian; 125 g ai/ha): 40 | Plant response rating, Wheat (wheat; 31 g ai/ha): 20 | Plant response rating, Wheat (wheat; 125 g ai/ha): 20
